Measurements taken from patent US9801922B2, “Compositions and methods of treating cancer” (UNIVERSITY OF IOWA RESEARCH FOUNDATION, priority 2011, dated 2017).
“And” between values parts separate entries of the source, which are not always exact repeats. Equal entries are not always repeated.

Columns and labels:
[1] = system: normal human mammary epithelial cells (HMEC); experiment: Clonogenic cell survival, HMEC; type: cell-based; conditions: 100 μM BSO, 1 μM DTPP 24 h, 500 nM AUR 15 min
Experimental: (§1) FIGS. 1A-D: BSO, DTPP and AUR treated SUM159, MDA-MB231 and HMEC Clonogenic survival. In Panel A (SUM 159), B (MDA-MB231) and C(HMEC), 150,000 cells/dish SUM159 or MDA-MB231 and 300,000 cells/dish were plated in 60 mm tissue culture dishes. After 48 hours, cells were given fresh complete HMECs media and treated with 100 μM BSO+/1 μM DTPP for 24 hours. 500 nM AUR were added 15 mins before the trypsinization of cells for clonogenic survival assay. In panel A-C, The error bars represent mean±1 SD of n=1 treatment dishes done in 3 separate experiments where each treatment dish was used to prepare 6-10 replicate cloning dishes for analysis. *p<0.001 as compared to Control. […] Mice growing Sum159 xenograft tumors were treated with 100 μM DTPP in drinking water for 2 weeks followed by i.p. injections of BSO 675 mg/kg followed in 2 hrs with Au 2.7 mg/kg. The day following injections tumors were harvested, digested and stained for ALDH positive cells. Each bar represents an average of at least three tumors. Error bars are SEM. *p<0.05 vs. control.
FIG. 2: BSO and AUR treated SUM159 dose response Clonogenic survival. 150,000 cells/dish SUM159 were plated in 60 mm tissue culture dishes. After 48 hours, cells were given fresh complete HMECs media and treated with 100 μM BSO 24 hours. 500 nM AUR were added 15 mins, 30 mins, 45 mins, 1 hr, 1.5 hrs and 3 hrs before the trypsinization. Cells were then collected and plated for clonogenic survival. […]
Clonogenic cell survival: To determine whether the DTPP exposure alters the cell proliferation in MDA-MB231, SUM159 and HMECs, 150,000 cells/dish of MDA-MB231 and SUM159 cells, and 300,000 cells/dish HMECs were plated in 60 mm tissue culture dishes. […] Attached and floating cells in the experimental dishes were collected after trypsinization with 1× trypsin-EDTA (CellGro, Herndon, Va., USA), centrifuged, resuspended in fresh media, and counted using a Coulter counter. […]

[2] = system: MDA-MB231 human breast cancer cells; experiment: Clonogenic cell survival, MDA-MB231; type: cell-based; conditions: for clonogenic cell killing: 100 μM BSO, 1 μM DTPP 24 h, 500 nM AUR 15 min (FIG. 1B)
Experimental: as §1
FIGS. 3A-3B: Clonogenic survival of SUM159 and MDA-MB231 cells treated with BSO, DTPP and AUR in the presence of 20 mM NAC. Asynchronously growing cultures of SUM159 (panel A) and MDA-MB231 (panel B) were plated as described in FIG. 1. After 48 hours, cells were given fresh complete HMECs media and treated with 100 μM BSO+/1 μM DTPP in the presence or absence of 20 mM NAC for 24 hours. 500 nM AUR were added 15 mins before the trypsinization. cells were then collected and plated for clonogenic survival. In panel A, B, The error bars represent mean±1SD of n=1 treatment dishes done in 3 separate experiments where each treatment dish was used to prepare 6-10 replicate cloning dishes for analysis. *p<0.001 as compared to W/O NAC Control. ^p<0.001 as compared to W/NAC Control.
Clonogenic cell survival: To determine whether the DTPP exposure alters the cell proliferation in MDA-MB231, SUM159 and HMECs, 150,000 cells/dish of MDA-MB231 and SUM159 cells, and 300,000 cells/dish HMECs were plated in 60 mm tissue culture dishes. After 48 hours, at 24 hours prior to each clonogenic survival experiment, media in all the dishes were changed to HMECs media and then treated with 100 μM BSO and 1 μM DTPP for 24 h. Cells were treated with AUR for 15 minutes prior to each clonogenic survival experiment. Attached and floating cells in the experimental dishes were collected after trypsinization with 1× trypsin-EDTA (CellGro, Herndon, Va., USA), centrifuged, resuspended in fresh media, and counted using a Coulter counter. Cells were re-plated using appropriate dilutions in their own media and clones were allowed to grow for 14 days in their regular growth media in the presence of 0.1% gentamycin. Cells were then fixed with 70% ethanol and stained with Coomassie blue and colonies of more than 50 cells counted and utilized to calculate clonogenic survival as described (Puck, T. T.; Morkovin, D.; Marcus, P. I.; Cieciura, S. J. Action of x-rays on mammalian cells. II. Survival curves of cells from normal human tissues. J Exp Med 106:485-500; 1957; Spitz, D. R.; Malcolm, R. R.; Roberts, R. J. Cytotoxicity and metabolism of 4-hydroxy-2-nonenal and 2-nonenal in H2O2-resistant cell lines. Do aldehydic by-products of lipid peroxidation contribute to oxidative stress? Biochem J 267:453-459; 1990). […]

[3] = system: thioredoxin reductase (TRR); experiment: Thioredoxin reductase activity assay in treated SUM159 cells; type: cell-based, human; conditions: for TRR activity: control 135
Experimental: FIG. 8: Intracellular thioredoxin reductase (TRR) activity measured in BSO, DTPP, and AUR exposed SUM159 cells. Asynchronously growing cultures of SUM159 were plated and treated as described in FIG. 1. Cells were harvested and scraped in PBS at 4° C. Whole cell homogenates were used for biochemical analysis of thioredoxin reductase activity. Errors represent Mean±1 SD of 4 samples from two separate experiments (n=4). *p<0.001 as compared to Control.
Thioredoxin Reductase Assay: Thioredoxin Reductase activity was measured by using Thioredoxin Reductase Assay Kit purchased from Sigma (St Louis, Mo.). 400,000 cells/100 mm dishes of SUM159 cells were plated and treated with BSO, DTPP and AUR as described above. When cells were grown to 70-80% confluency on 100 mm dishes and scraped in PBS at 4° C., centrifuged, and the cell pellets were frozen at −20° C. until analysis. The assay was performed according to manufacturer's instructions. Briefly, working buffer containing 100 mM KPO4, pH 7.0, 10 mM EDTA, and 0.24 mM NADPH was prepared, and samples were added with working buffer along with 5,5′-dithiobis-(2-nitrobenzoic acid) (Eliman's reagent, DTNB). The rate of DTNB's reduction to 2-nitro-5-thiobenzoate (TNB) was then measured spectrophotometrically at […]. For each sample, this reaction was replicated, in tandem, with the sample in the presence of an inhibitor to thioredoxin reductase (TrxR), included with the kit. The difference between the sample rate with and without the TrxR inhibitor was taken to be the difference caused by TrxR activity in the sample. Each sample was then normalized to protein, by using the Lowry protein assay, as described previously (Lowry, O. H.; Rosebrough, N.J.; Farr, A. L.; Randall, R. J. Protein measurement with the Folin phenol reagent. J Biol Chem 193:265-275; 1951). The thioredoxin reductase activity of each sample was then normalized as a percentage of that of the control cells.

SMILES | cytotoxicity (clonogenic survival), in words [1] | clonogenic cell killing [2] | TRR activity ([3]; 500 nM AUR 15 min) | cytotoxicity (clonogenic survival), in words ([2]; 100 μM BSO 24 h) | effect on TRR activity, in words [3] | survival fraction (of control cells) in the presence of NAC ([2]; 1 μM DTPP with 20 mM NAC, 24 hrs) | decrease in cell survival / survival fraction compared to control ([2]; 100 μM BSO and/or 1 μM DTPP for 24 hours) | increase of TRR activity [3] | TRR activity ([3]; 1 μM DTPP 24 h)
CC[PH](CC)(CC)[Au][S][C@@H]1O[C@H](COC(C)=O)[C@@H](OC(C)=O)[C@H](OC(C)=O)[C@H]1OC(C)=O [AUR, S-triethylphosphinegold(I)-2,3,4,6-tetra-O-acetyl-1-thio-β-D-glucopyranoside] | did not cause any significant cytotoxicity | 50%-55% and 50% | 10 mU/mg protein |  |  |  |  |  | 
CCCCS(=N)(=O)CCC(N)C(=O)O [BSO, L-buthionine-[S,R]-sulfoximine, reference compound] | did not cause any significant cytotoxicity |  |  | did not cause significantly cytotoxicity | not capable of altering the TRR activity |  |  |  | 
CCCCCCCCCC[P+](c1ccccc1)(c1ccccc1)c1ccccc1 [DTPP, Decyl-Triphenylphosphonium] | did not cause any significant cytotoxicity | at least 70% |  |  |  | at least 70% | 70%-80% | 2 fold | 311 mU/mg
